Assay results: patent US11433136B2, “Polyacetal polymers, conjugates, particles and uses thereof” (THE GENERAL HOSPITAL CORPORATION, priority 2015, dated 2022)

System: orthotopic AK4.4 pancreatic tumors
Assay: Orthotopic AK4.4 pancreatic tumor study in lean and obese mice
Assay type: in vivo, mouse
Settings: for gene and protein expression of activated PSC marker αSMA in tumors: losartan 90 mg/Kg i.p. every day
Text: Wild-type (WT) C57BL/6 and FVB male mice were originally obtained from Jackson Laboratory (The Jackson Laboratory, Bar Harbor, Me.) and bred and maintained in our defined-flora colony. KPC (Ptf1-Cre/LSL-KRAS^G12D/p53-R172H) and iKRAS (p48-Cre;R26-rtTa-IRES-EGFP;TetO-Kras^G12D mice) mice were obtained. To generate an obese model, mice (6-week old) were given either 10% or a 60% fat diet (D12450J and D12492, Research Diets, New Brunswick, N.J.) for 10 weeks (or until tumor collection in spontaneous models), as previously described (Surwit, R. S., et al. Metabolism: clinical and experimental 44, 645-651 (1995)). For implanted tumor experiments, AK4.4 cells (KrasG12D and p53 ? /) were isolated from mice generating spontaneous pancreatic tumors (Ptf1-Cre/LSL-Kras^G12D/p53Lox/ ? ) (Bardeesy, N., et al. Proc Natl Acad Sci USA 103, 5947-5952 (2006)). Orthotopic pancreatic tumors were generated by implanting a small piece (1 mm^3) of viable tumor tissue (from a source tumor in a separate animal) into the pancreas of a 6-8 week-old male lean or obese FVB (AK4.4 model) or C57BL/6 (PAN02 model) mouse. PAN02 tumor chunks and AK4.4 cells were authenticated by IDEXX laboratories. (PAN02: IDEXX RADIL Case #22366-2013. AK4.4: IDEXX RADIL Case #27818-2014). For AT1- and AT2-knockout studies, tumors were implanted into the pancreas of a 6-8-week-old male lean or obese C57BL/6, agtr1a−/− or agtr2−/− mice. With exception of PAN02, these orthotopically grown pancreatic cancers are characterized by a dense collagenous stroma, a hallmark of pancreatic cancer desmoplasia (Diop-Frimpong, B., et al. Proc Natl Acad Sci USA 108, 2909-2914 (2011)).
For all experiments unless specified below, mice bearing orthotopic PAN02 or AK4.4 pancreatic tumors were randomized into treatment groups (or no treatment) and tumors were collected at day 21 after implantation. For tumor growth study with chemotherapy, mice were divided into treatment groups 7 days after implantation, and treated with either 5-FU (30 mg/Kg i.v. every 4 days) or an equal volume of saline by intravenous injection on days 7, 11 and 15 after implantation, with tumors collected at day 19. For tumor growth study with losartan, mice were treated with losartan (90 mg/Kg i.p. every day) or an equal volume of PBS intraperitoneally starting on day 5 after implantation and for the duration of the study. In the combined experiment of losartan and 5-FU, the same protocol was used for each drug as described above. TAN depletion by a Ly6G specific inhibitor (BioExcell, 4 mg/Kg i.p. every 2 days) was administered to PAN02 bearing animals starting at day 1 or day 7, and to AK4.4 bearing animals at day 7. IL-1β inhibition (MM425B, Endogen/Pierce Biotechnology, 2 mg/Kg i.p. every 2 days) was administered to PAN02 bearing animals starting at day 7. At the completion of the study, adipose tissue and tumor samples were collected, weighed, and processed for further analysis. When spontaneous models were used, tumors were collected when palpable.
To assess obesity-induced ECM remodeling and fibrosis fibrillar collagen accumulation was quantified using second harmonic generation imaging, and collagen-I content, hyaluronan, MMPs levels and fibrosis related signaling pathways (e.g. AT-I, CTGF, TSP 1, TGFβ1, and P38/ERK signaling) were measured by rtPCR array, immunohistochemistry and immunoblotting. The topographical distribution and density of cancer-associated fibroblasts (CAFs) in tumor sections was detected by staining for αSMA activated fibroblast marker. Vessel morphology and perfusion was assessed using standard histological analyses.
Tumor-bearing mice were perfused through intracardiac injection of PBS and sacrificed. Pancreatic tumor tissues were harvested, minced, and digested at 37° C. for 1 h with DMEM containing collagenase type 1A (1.5 mg/mL), hyaluronidase (1.5 mg/mL), and DNase (2 mg/mL). The digestion mixtures were filtered through 70-μm cell strainers. […]

Row | SMILES | reduction in tumor weight as compared to untreated controls (lean mice, 3 doses of 5-FU 30 mg/kg BW q4d) [%] | effect on tumor weight (obese mice, 3 doses of 5-FU 30 mg/kg BW q4d) | gene and protein expression of activated PSC marker αSMA in tumors (lean mice) | tumor weight, losartan monotherapy (obese mice) | gene and protein expression of activated PSC marker αSMA in tumors (obese mice) | obesity-induced abnormal expression of desmoplasia-related markers and AT1 downstream signaling (obese mice, effects only modest in lean animals) | response to chemotherapy with AT1 blockade (obese mice, somewhat effective in the lean setting, losartan plus 5-FU) | gene and protein expression of collagen-I and fibrillar collagen in tumors (obese, but not lean mice, losartan)
1 | O=c1[nH]cc(F)c(=O)[nH]1 [Example 5-FU, 5-fluorouracil] | 50 | did not significantly reduce tumor weight |  |  |  |  |  | 
2 | CCCCc1nc(Cl)c(CO)n1Cc1ccc(-c2ccccc2-c2nn[nH]n2)cc1 [losartan] |  |  | only mildly | reduced tumor weight | reduce | normalized | improved therapeutic response in tumors to a greater extent | decrease
